Here are results for 2 molecules from article PMC7005530, “A selective androgen receptor modulator SARM‐2f activates androgen receptor, increases lean body mass, and suppresses blood lipid levels in cynomolgus monkeys” (Pharmacology Research & Perspectives, 2020).

The conditions of series [1]: TE intramuscular 20 mg/kg, monkeys, cited from earlier work.
Series [2] can be described thus: Plasma lipid levels after 4-week treatment. Type of series: in vivo, cynomolgus monkey. The note with it: after 4 wks; SARM‐2f 1, 3, 10 mg/kg daily p.o.; TE 2 mg/kg every 2 wks; vs vehicle. How it is done:
The monkeys were divided into five groups by weight randomization (MiTOX system ver2.0, Mitsui E & S Systems Research Inc) on the last day of the habituation period. SARM‐2f was orally administered at daily doses of 1, 3, or 10 mg/kg for 4 weeks between 9:00 and 11:00 hours, using 0.5% w/v methylcellulose as the vehicle. TE was injected intramuscularly on Day 0 and Day 13; the dosing start was set at Day 0 at a dose of 2 mg/kg using sesame oil as the vehicle. The route of administration and dose of TE was selected according to the route and dose mentioned in the clinical indications. BW was measured every week before dosing (between 8:30 and 9:00 hours), and LBM was measured every 2 weeks after dosing and before feeding (between 11:30 and 14:30 hours) using an X‐ray bone density measuring device (Discovery, HOLOGIC USA). Blood collection for lipid profiles was conducted on the day after the completion of the four‐week multiple administration of SARM‐2f or TE. Plasma levels of total cholesterol (T‐chol), HDL‐c, low‐density lipoprotein cholesterol (LDL‐c), triglyceride (TG), alanine aminotransferase (ALT), and […] (AST) were measured by an automatic JCA‐BM8 analysis system (JEOL Ltd.). Plasma lipoprotein (a) (Lp (a)) levels were measured using a multiplate absorbance measuring system (Multiscan Ascent, Thermo Fisher Scientific KK). […]

A short description of series [3]: Liver function tests (AST, ALT) after 4-week treatment. As to conditions: after 4 wks; SARM‐2f 1, 3, 10 mg/kg daily p.o.; TE 2 mg/kg every 2 wks; vs vehicle. Type of series: in vivo, cynomolgus monkey. How it is done: The monkeys were divided into five groups by weight randomization (MiTOX system ver2.0, Mitsui E & S Systems Research Inc) on the last day of the habituation period. SARM‐2f was orally administered at daily doses of 1, 3, or 10 mg/kg for 4 weeks between 9:00 and 11:00 hours, using 0.5% w/v methylcellulose as the vehicle. TE was injected intramuscularly on Day 0 and Day 13; the dosing start was set at Day 0 at a dose of 2 mg/kg using sesame oil as the vehicle. The route of administration and dose of TE was selected according to the route and dose mentioned in the clinical indications. BW was measured every week before dosing (between 8:30 and 9:00 hours), and LBM was measured every 2 weeks after dosing and before feeding (between 11:30 and 14:30 hours) using an X‐ray bone density measuring device (Discovery, HOLOGIC USA). Blood collection for lipid profiles was conducted on the day after the completion of the four‐week multiple administration of SARM‐2f or TE. Plasma levels of total cholesterol (T‐chol), HDL‐c, low‐density lipoprotein cholesterol (LDL‐c), triglyceride (TG), alanine aminotransferase (ALT), and […] (AST) were measured by an automatic JCA‐BM8 analysis system (JEOL Ltd.). Plasma lipoprotein (a) (Lp (a)) levels were measured using a multiplate absorbance measuring system (Multiscan Ascent, Thermo Fisher Scientific KK).
(§1) In the reporter assays, EC50 was calculated using Graph Pad Prism version 6. The effects of SARM‐2f or TE on BW and LBM were analyzed by t test, with Bonferroni correction for repeated measurements.

The target in series [4] is T1, rat AR (Rattus norvegicus, UniProt P15207).
T1 construct: expressed in transfected cells; host or cells: COS7
T1 sequence (P15207 1-902): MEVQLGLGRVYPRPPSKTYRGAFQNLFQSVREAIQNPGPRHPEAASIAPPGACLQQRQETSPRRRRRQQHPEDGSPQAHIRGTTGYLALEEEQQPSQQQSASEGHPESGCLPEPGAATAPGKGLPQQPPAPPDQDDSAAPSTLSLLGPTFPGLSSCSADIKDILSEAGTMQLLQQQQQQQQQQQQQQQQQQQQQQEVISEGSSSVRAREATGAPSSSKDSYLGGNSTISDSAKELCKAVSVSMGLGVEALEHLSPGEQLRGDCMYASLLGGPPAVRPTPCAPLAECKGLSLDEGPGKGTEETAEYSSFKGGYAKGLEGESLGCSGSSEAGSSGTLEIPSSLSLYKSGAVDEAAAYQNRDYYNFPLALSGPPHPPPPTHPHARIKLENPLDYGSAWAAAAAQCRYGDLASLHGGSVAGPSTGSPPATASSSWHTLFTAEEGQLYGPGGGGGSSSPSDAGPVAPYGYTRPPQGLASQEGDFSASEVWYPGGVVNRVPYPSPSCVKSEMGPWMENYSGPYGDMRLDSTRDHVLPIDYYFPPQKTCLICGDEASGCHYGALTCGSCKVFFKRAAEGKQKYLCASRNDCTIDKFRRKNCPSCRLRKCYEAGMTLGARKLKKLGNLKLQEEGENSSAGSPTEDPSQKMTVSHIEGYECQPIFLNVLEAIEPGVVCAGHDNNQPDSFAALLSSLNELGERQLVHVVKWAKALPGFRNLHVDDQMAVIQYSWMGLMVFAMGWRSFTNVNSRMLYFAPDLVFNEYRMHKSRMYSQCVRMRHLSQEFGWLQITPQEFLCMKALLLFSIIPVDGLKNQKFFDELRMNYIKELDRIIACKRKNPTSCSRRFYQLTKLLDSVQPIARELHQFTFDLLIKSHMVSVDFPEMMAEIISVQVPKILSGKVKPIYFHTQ
Kind of series: AR reporter assay (MMTV-luc) in COS7 cells expressing rat AR. Type of series: cell-based. Also noted: Emax: dose or concentration left out as unconfirmed. How it is done:
(§2) Two hours post‐transfection, the cells were plated in 96‐well plates at a density of 2 × 10^4 cells/well, and cultured at 37°C for 3 hours. […] Luciferase activity was measured using the Steady‐Glo Luciferase assay system (Promega) and an Envision Multimode Plate Reader (PerkinElmer).
as §1
In general terms: Reporter assays use an easily measured gene product as a stand-in for the process of interest.

Series [5] addresses T2, cynomolgus monkey AR (Macaca fascicularis, UniProt O97952).
T2 construct: expressed in transfected cells; host or cells: COS7
T2 sequence (O97952 1-895): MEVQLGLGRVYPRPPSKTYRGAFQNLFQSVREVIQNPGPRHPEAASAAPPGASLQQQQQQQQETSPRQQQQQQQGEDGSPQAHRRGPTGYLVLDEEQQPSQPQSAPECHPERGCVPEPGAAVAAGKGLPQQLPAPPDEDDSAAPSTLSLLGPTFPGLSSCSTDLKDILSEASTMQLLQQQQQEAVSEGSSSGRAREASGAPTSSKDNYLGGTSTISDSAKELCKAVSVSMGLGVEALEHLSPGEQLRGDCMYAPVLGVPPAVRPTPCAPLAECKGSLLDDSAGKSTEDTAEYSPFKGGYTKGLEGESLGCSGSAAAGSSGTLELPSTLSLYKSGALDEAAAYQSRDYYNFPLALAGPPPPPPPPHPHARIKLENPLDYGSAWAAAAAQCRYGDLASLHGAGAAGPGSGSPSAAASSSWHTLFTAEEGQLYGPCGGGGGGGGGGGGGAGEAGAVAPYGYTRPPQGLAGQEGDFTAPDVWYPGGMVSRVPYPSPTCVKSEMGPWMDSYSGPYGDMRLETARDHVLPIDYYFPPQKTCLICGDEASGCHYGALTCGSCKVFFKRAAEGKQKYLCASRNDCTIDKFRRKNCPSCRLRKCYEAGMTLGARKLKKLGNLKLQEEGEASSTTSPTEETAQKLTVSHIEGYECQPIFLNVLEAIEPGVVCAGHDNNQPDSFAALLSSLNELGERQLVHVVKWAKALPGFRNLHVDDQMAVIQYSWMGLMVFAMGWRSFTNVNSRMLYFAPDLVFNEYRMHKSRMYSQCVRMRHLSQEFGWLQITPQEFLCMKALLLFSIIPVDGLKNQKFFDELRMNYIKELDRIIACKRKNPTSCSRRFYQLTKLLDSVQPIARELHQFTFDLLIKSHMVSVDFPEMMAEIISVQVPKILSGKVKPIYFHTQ
As to the kind of experiment: AR reporter assay (MMTV-luc) in COS7 cells expressing monkey AR. Type of series: cell-based. The method, then:
as §2, §1

In series [6] the target is T3, human AR (Homo sapiens, UniProt P10275).
T3 construct: expressed in transfected cells; host or cells: COS7
T3 sequence (P10275 1-920): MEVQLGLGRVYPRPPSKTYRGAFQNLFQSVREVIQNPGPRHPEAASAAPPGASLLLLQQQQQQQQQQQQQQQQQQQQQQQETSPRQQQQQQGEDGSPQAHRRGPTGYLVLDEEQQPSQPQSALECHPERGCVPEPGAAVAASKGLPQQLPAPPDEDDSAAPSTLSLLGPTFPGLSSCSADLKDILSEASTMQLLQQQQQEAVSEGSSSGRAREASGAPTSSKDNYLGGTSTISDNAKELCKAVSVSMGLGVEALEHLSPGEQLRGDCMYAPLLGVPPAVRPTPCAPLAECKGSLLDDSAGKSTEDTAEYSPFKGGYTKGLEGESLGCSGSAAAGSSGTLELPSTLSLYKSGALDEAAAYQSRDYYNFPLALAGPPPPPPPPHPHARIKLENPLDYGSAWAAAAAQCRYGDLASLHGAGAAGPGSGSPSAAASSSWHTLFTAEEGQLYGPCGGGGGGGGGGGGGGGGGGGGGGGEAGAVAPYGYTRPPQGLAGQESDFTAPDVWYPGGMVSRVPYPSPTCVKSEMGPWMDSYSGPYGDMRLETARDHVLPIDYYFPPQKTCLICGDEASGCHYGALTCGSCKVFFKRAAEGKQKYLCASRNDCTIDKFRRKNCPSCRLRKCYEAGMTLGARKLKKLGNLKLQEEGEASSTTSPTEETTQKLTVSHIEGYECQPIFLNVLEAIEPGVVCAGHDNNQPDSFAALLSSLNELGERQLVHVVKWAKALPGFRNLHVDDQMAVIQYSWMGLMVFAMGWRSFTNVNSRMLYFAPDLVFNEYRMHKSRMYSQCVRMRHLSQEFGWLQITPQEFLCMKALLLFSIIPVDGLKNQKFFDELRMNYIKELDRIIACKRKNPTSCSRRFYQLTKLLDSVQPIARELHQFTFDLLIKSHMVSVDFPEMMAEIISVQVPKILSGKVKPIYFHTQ
Kind of series: AR reporter assay (MMTV-luc) in COS7 cells expressing human AR. Type of series: cell-based. As to conditions: COS-7, read-out: maximal activation level. Details: Emax: dose or concentration left out as unconfirmed. The method, then: as §2, §1

As for `CCCCCCC(=O)O[C@H]1CC[C@H]2[C@@H]3CCC4=CC(=O)CC[C@]4(C)[C@H]3CC[C@]12C` [TE, Testosterone enanthate, reference compound], in series [1] (within 4 weeks), the “effect on BW” value was “significantly increasing the BW”. The “blood testosterone nadir levels” value in series [1] is on record as “approximately 1500 ng/dL”. Also, in series [2], the “Blood level of HDL‐c” value is “did not affect”, the “Blood level of LDL‐c” value was “increase the LDL‐c level significantly”, the “Blood level of TG” value is on record as “did reduce the TG level” and the “Blood level of T‐chol” value was “did not affect”. For the same molecule, the “Lp (a) protein level” value in series [2] is listed as “did not affect”. Moreover, in series [3], the “Blood level of ALT” value is on record as “not changed” and the “Blood level of AST” value is “not changed”.
One may read the EC50 as the midpoint of the concentration-response curve. On to `C[C@](O)(COc1ccc(C#N)cc1)C(=O)Nc1ccc(C#N)c(C(F)(F)F)c1` [ostarine, reference compound], for which the EC50 in series [4] was determined as 2.5 nM; in series [5] it was 2.2 nM. Besides, the Emax in series [4] (COS-7, read-out: maximal activation) was found to be 112%; in series [6], 141%. Further, the “maximal AR activation” value in series [5] (monkey AR, at 1 μmol/L, 1 μmol/L DHT = 100%) came out at 126%.
